Assay results from patent publication US20090036355A1, “Antisense Modulation of PTP1B Expression” (priority 2004, published 2009).
Read-outs that look alike come from different tables or passages of the source.

Experiments:
[1] = test system: ZDF rats; assay: Fed plasma glucose in Zucker diabetic fatty (ZDF) rats; format: in vivo, rat
Text: The leptin receptor deficient Zucker diabetic fatty (ZDF) rat is another useful model for the investigation of type 2 diabetes. Diabetes develops spontaneously in these male rats at ages 8-10 weeks, and is associated with hyperphagia, polyuria, polydipsia, and impaired weight gain, symptoms which parallel the clinical symptoms of diabetes (Phillips M S, et al., 1996, Nat Genet. 13, 18-19).
(§1) ZDF/GmiCrl-fa/fa (ZDF) male rats were purchased from Charles River Laboratories (Wilmington, Mass., USA). Six week old ZDF male rats were injected intraperitoneally with oligonucleotides at a dose of 25 mg/kg two times per week for four weeks. […] Saline-injected animals also serve as controls.

[2] = test system: ZDF rats; assay: Intraperitoneal glucose tolerance test (IPGTT) in ZDF rats; format: in vivo, rat
Protocol: as §1
An intraperitoneal glucose tolerance test (IPGTT) was also performed. Rats received intraperitoneal injections of glucose, and the blood glucose and insulin levels are measured before the glucose challenge and at intervals over 2 hours. The blood glucose levels (in mg/dL) are shown below in Table 1: […]

[3] = test system: PTP1B protein; assay: PTP1B protein levels in ZDF rats (Western blot); format: in vivo, rat; settings: compared to saline-treated animals
Protocol: as §1
PTP1B protein levels were measured by Western blot analysis.

[4] = test system: PTP1B; assay: PTP1B protein in HEPG2 cells (Western blot); format: cell-based, human; settings: 150 nM
Protocol: (§2) There is a high degree of homology between PTP1B and T-cell phosphatase (TC-PTPase, PTPN2), particularly in the catalytic domain. This may present problems in design of small molecule drugs specific for PTP1B. […] HEPG2 human hepatocellular liver carcinoma cells (ATCC, Manassas Va.) are routinely maintained in minimum essential medium (Eagle) with 2 mM L-glutamine and Earle's BSS adjusted to contain 1.5 g/L sodium bicarbonate, 0.1 mM non-essential amino acids, and 1.0 mM sodium pyruvate, […]; fetal bovine serum.
(§3) Levels of PTP1B and TC-PTPase protein were measured by Western blot using mouse monoclonal antibodies to PTP1B (AB-1) and TC-PTPase (AB-1) (CalBiochem/Oncogene sciences, EMD Biosciences, Inc., San Diego Calif.), which specifically identified human target proteins and were used at 0.25 ug/ml. Results were expressed as percent of control (no oligo treatment).

[5] = test system: T-cell phosphatase (TC-PTPase, PTPN2); assay: TC-PTPase protein in HEPG2 cells (Western blot); format: cell-based, human; settings: 150 nM
Protocol: as §2, §3

[6] = rat, in vivo
[7] = test system: ZDF rats; assay: ZDF rats: comparison to rosiglitazone and metformin (glucose, HbA1c, meal tolerance, body weight); format: in vivo, rat
Protocol: A saline treated group of lean rats was also included in the study. Treatment with all drugs was initiated before the rats became frankly diabetic, which occurs at about 8 weeks of age. Plasma glucose levels were measured 3 and 5 weeks after treatment initiation. Body weight was measured once every week; in addition, HbA, levels were measured at the end of the study by HPLC. A meal tolerance test was also performed after 4 weeks of treatment.
At the end of 5 weeks, some rats were sacrificed and the liver and epididymal fat pads were removed. The rest of the animals (n=4/group) were examined for changes in plasma glucose levels after cessation of treatment. Glucose measurements during the recovery phase were made 10 days and 5 weeks after stopping treatment. Tissue extracts were subjected to Western blot analysis to measure changes in PTP1B protein levels.

[8] = test system: ZDF rats; assay: Combination with metformin in ZDF rats: plasma glucose; format: in vivo, rat; settings: 4 weeks, metformin 100, 300 or 500 mg/kg per day, ISIS 113715 12.5 mg/kg twice a week
Protocol: 500 mg/kg is the maximally effective dose that can be tolerated by these rats. Plasma glucose was measured at week 0 (before treatment) and after weeks 1, 2 and 4 of treatment.

[9] = Combination with metformin in ZDF rats: hypoglycemia, AST/ALT, lipids, plasma lactate; format: in vivo, rat; settings: after 4 weeks of treatment, metformin 100, 300 or 500 mg/kg per day, ISIS 113715 12.5 mg/kg twice a week
Protocol: 500 mg/kg is the maximally effective dose that can be tolerated by these rats.
There was no significant change in AST/ALT, plasma triglyceride or plasma cholesterol levels in any animal group. Because of the risk of lactic acidosis associated with metformin treatment, plasma lactate levels were measured.

[10] = AST/ALT and plasma cholesterol in aged ZDF rats; settings: weeks 1, 2, 3, 4 and 5

ISIS 141923: CCTTCCCTGAAGGTTCCTCC; SEQ ID NO: 20, six-mismatch control of ISIS 113715, negative oligonucleotide control (chemistry not given here)
fed plasma glucose levels ([1]; 25 mg/kg i.p. two times per week, week 0, saline 302±44): approximately 306±59 mg/dL
fed plasma glucose levels ([1]; week 1, saline 400±17): ~391 ± 35 mg/dL
fed plasma glucose levels ([1]; week 2, saline 441±13): ~402 ± 37 mg/dL
fed plasma glucose levels ([1]; week 3, saline 453±26): ~411 ± 27 mg/dL
fed plasma glucose levels ([1]; week 4, saline 425±10): ~392 ± 11 mg/dL
Blood glucose after IPGTT, Glucose mg/dL ± SEM ([2]; 0 min): 330 ± 39 mg/dL
Insulin excursion after IPGTT, Insulin (ng/ml ± SEM) ([2]; 0 min): 2.2 ± .30 ng/mL
Blood glucose after IPGTT, Glucose mg/dL ± SEM ([2]; 5 min): 543 ± 43 mg/dL
Insulin excursion after IPGTT, Insulin (ng/ml ± SEM) ([2]; 5 min): 2.3 ± .84 ng/mL
Blood glucose after IPGTT, Glucose mg/dL ± SEM ([2]; 15 min): 703 ± 60 mg/dL
Insulin excursion after IPGTT, Insulin (ng/ml ± SEM) ([2]; 15 min): 4.0 ± .22 ng/mL
Blood glucose after IPGTT, Glucose mg/dL ± SEM ([2]; 30 min): 791 ± 52 mg/dL
Insulin excursion after IPGTT, Insulin (ng/ml ± SEM) ([2]; 30 min): 4.2 ± .37 ng/mL
Blood glucose after IPGTT, Glucose mg/dL ± SEM ([2]; 60 min): 705 ± 51 mg/dL
Insulin excursion after IPGTT, Insulin (ng/ml ± SEM) ([2]; 60 min): 2.4 ± .66 ng/mL
Blood glucose after IPGTT, Glucose mg/dL ± SEM ([2]; 120 min): 594 ± 28 mg/dL
Insulin excursion after IPGTT, Insulin (ng/ml ± SEM) ([2]; 120 min): 1.7 ± .60 ng/mL
Insulin AUC after IPGTT ([2]; saline approximately 300): ~320
Glucose excursion (AUC) after IPGTT ([2]; saline approximately 72,000): approximately 80,000
PTP1B protein levels decreased by [3]: 10%
PTP1B protein levels reduced by [4]: reduced neither
TC-PTPase levels reduced by [5]: reduced neither
AST/ALT and plasma cholesterol levels [6]: no significant effects

CN(C)C(=N)N=C(N)N [Metformin]
Blood glucose (mg/dL) (approx.) ([7]; 31 day washout, saline 320): ~330 mg/dL
Blood glucose (mg/dL) (approx.) ([7]; Week 3 of dosing, saline 320): ~180 mg/dL
body weight ([7]; after treatment): remained unchanged
effect on blood glucose over time [8]: lost over time
plasma lactate levels [9]: dose-dependent increase

CN(CCOc1ccc(CC2SC(=O)NC2=O)cc1)c1ccccn1 (stereo not drawn) [Rosiglitazone]
Blood glucose (mg/dL) (approx.) ([7]; 10 day washout, saline 310): ~260 mg/dL
Blood glucose (mg/dL) (approx.) ([7]; 31 day washout, saline 320): ~270 mg/dL
Blood glucose (mg/dL) (approx.) ([7]; Pre-treatment, ISIS 113715 50 mg/kg/week IP, rosiglitazone 10 mg/kg/day, metformin 800 mg/kg/day orally, saline 140): ~140 mg/dL
Blood glucose (mg/dL) (approx.) ([7]; Week 3 of dosing, saline 320): ~110 mg/dL
AST/ALT and plasma cholesterol levels [10]: no significant effects
